The source of these data is patent US12110305B2, “Prodrugs of phosphonamide nucleotide analogues and their pharmaceutical use” (priority 2020, dated 2024).

The subject of this test is HIV-1 (IIIB). In words: Antiviral (HIV) assay in MT-4 cells. The note with it: Human immunodeficiency virus 1, MT4, 120 h; HIV-1 IIIB in MT-4 cells, 5 days incubation, Cell Titer Glo; average of at least two independent experiments. It counts as cell-based. Here is the method:
Example 104: Antiviral (HIV) Assay in MT-4 Cells
Compounds were tested in a high-throughput 384-well assay format for their ability to inhibit the replication of HIV-1 (IIIB) in MT-4 cells. Compounds were serially diluted (1:3) in DMSO on 384-well polypropylene plates and further diluted 200-fold into complete RPMI media (10% FBS, 1% P/S) using the Biotek Micro Flow and Labcyte ECHO acoustic dispenser. Each plate contained up to 8 test compounds, with negative (no drug) and positive (5 μM AZT) controls. MT-4 cells were pre-treated with 10 μL of either RPMI (mock-infected) or a fresh 1:250 dilution of HIV-1 IIIB concentrated virus stock. Infected and uninfected MT-4 cells were further diluted in complete RPMI media and added to each plate using a Micro Flow dispenser. After 5 days incubation in a humidified and temperature-controlled incubator (37° C.), Cell Titer Glo (Promega) was added to the assay plates and chemiluminescence read using an Envision plate-reader. EC50 values were defined as the compound concentration that causes a 50% decrease in luminescence signal and were calculated using a sigmoidal dose-response model to generate curve fits and are shown in Table 1.
(In general: Cellular ATP, detected with luciferase, serves as a proxy for viable cell number.)
In the case of `C[C@H](Cn1cnc2c(N)ncnc21)OCP(=O)(NC(C)(C)C(=O)O[C@H]1CC[C@H](C(F)(F)F)CC1)NC(C)(C)C(=O)O[C@H]1CC[C@H](C(F)(F)F)CC1` [Example 21, Bis(trans-4-(trifluoromethyl)cyclohexyl) 2,2′-((((((R)-1-(6-amino-9H-purin-9-yl)propan-2-yl)oxy)methyl)phosphoryl)bis(azanediyl))bis(2-methylpropanoate)], the midpoint of the response, the EC50, lay at 0.007 µM.

`C[C@H](Cn1cnc2c(N)ncnc21)OCP(=O)(NC(C)(C)C(=O)OCC1CCC2(CCC2)CC1)NC(C)(C)C(=O)OCC1CCC2(CCC2)CC1` (stereo partly drawn) [Example 53, Bis(spiro[3.5]nonan-7-ylmethyl) 2,2′-(((((1-(6-amino-9H-purin-9-yl)propan-2-yl)oxy)methyl)phosphoryl)bis(azanediyl))(R)-bis(2-methylpropanoate)] showed a concentration giving a half-maximal response (EC50) of 0.006 µM.

Molecule `C[C@H](Cn1cnc2c(N)ncnc21)OCP(=O)(NC(C)(C)C(=O)OCC1CC2(C1)CC1(CCC1)C2)NC(C)(C)C(=O)OCC1CC2(C1)CC1(CCC1)C2` [Example 57, Bis(dispiro[3.1.3^6.1^4]decan-2-ylmethyl) 2,2′-(((((1-(6-amino-9H-purin-9-yl)propan-2-yl)oxy)methyl)phosphoryl)bis(azanediyl))(R)-bis(2-methylpropanoate)] came in with an EC50 of 0.023 µM.

Turning to `CCCCCCOC(=O)C(C)(C)NP(=O)(CO[C@H](C)Cn1cnc2c(N)ncnc21)NC(C)(C)C(=O)OCC(C)(C)OC` (stereo partly drawn) [Example 79, Hexyl 2-((((((R)-1-(6-amino-9H-purin-9-yl)propan-2-yl)oxy)methyl)((1-(2-methoxy-2-methylpropoxy)-2-methyl-1-oxopropan-2-yl)amino)phosphoryl)amino)-2-methylpropanoate], a half-maximal response (EC50) required 0.271 µM.

Regarding `CCCCCCOC(=O)C(C)(C)NP(=O)(CO[C@H](C)Cn1cnc2c(N)ncnc21)NC1(C(=O)OCCCCCC)CCC1` (stereo partly drawn) [Example 18, Hexyl 1-((((((R)-1-(6-amino-9H-purin-9-yl)propan-2-yl)oxy)methyl)((1-(hexyloxy)-2-methyl-1-oxopropan-2-yl)amino)phosphoryl)amino)cyclobutane-1-carboxylate], the half-maximal effective concentration (EC50) came to 0.013 µM. This EC50 is about 21-fold lower than that of the molecule before.

In turn, `CCCCCCOC(=O)C(C)(C)NP(=O)(CO[C@H](C)Cn1cnc2c(NC(=O)OCCCCC)ncnc21)NC(C)(C)C(=O)OCCCCCC` [Example 32, Dihexyl 2,2′-(((((1-(6-(((pentyloxy)carbonyl)amino)-9H-purin-9-yl)propan-2-yl)oxy)methyl)phosphoryl)bis(azanediyl))(R)-bis(2-methylpropanoate)] had an EC50 greater than 0.5 µM.

As to `C[C@H](Cn1cnc2c(N)ncnc21)OCP(=O)(NC(C)(C)C(=O)OC(C)(C)C)NC(C)(C)C(=O)OC(C)(C)C` [Example 9, Di-tert-butyl 2,2′-(((((1-(6-amino-9H-purin-9-yl)propan-2-yl)oxy)methyl)phosphoryl)bis(azanediyl))(R)-bis(2-methylpropanoate)], the concentration giving a half-maximal response (EC50) was found to be 0.169 µM.

As to `CCCCCCOC(=O)C(C)(C)NP(=O)(CO[C@H](C)Cn1cnc2c(NC(=O)OCCOC(=O)c3ccccc3)ncnc21)NC(C)(C)C(=O)OCCCCCC` [Example 94, Dihexyl 2,2′-(((((1-(6-(((2-(benzoyloxy)ethoxy)carbonyl)amino)-9H-purin-9-yl)propan-2-yl)oxy)methyl)phosphoryl)bis(azanediyl))(R)-bis(2-methylpropanoate)], the response was half-maximal at 0.13 µM (EC50). The EC50 values of the last two molecules are within 1.5-fold of each other.

As for `C[C@H](Cn1cnc2c(N)ncnc21)OCP(=O)(NC(C)(C)C(=O)OCC1CCCCC1)NC(C)(C)C(=O)OCC1CCCCC1` [Example 46, Bis(cyclohexylmethyl) 2,2′-(((((1-(6-amino-9H-purin-9-yl)propan-2-yl)oxy)methyl)phosphoryl)bis(azanediyl))(R)-bis(2-methylpropanoate)], the EC50 was 0.005 µM.

`CCCCCCOC(=O)C(C)(C)NP(=O)(CO[C@H](C)Cn1cnc2c(NC(=O)CCCC(=O)OCc3oc(=O)oc3C)ncnc21)NC(C)(C)C(=O)OCCCCCC` [Example 99, (5-Methyl-2-oxo-1,3-dioxol-4-yl)methyl 5-[[9-[(2R)-2-[bis[(2-hexoxy-1,1-dimethyl-2-oxo-ethyl)amino]phosphorylmethoxy]propyl]purin-6-yl]amino]-5-oxo-pentanoate] gave an EC50 of 0.091 µM.

In turn, `CCC(CC)CCOC(=O)C(C)(C)NP(=O)(CO[C@H](C)Cn1cnc2c(N)ncnc21)NC(C)(C)C(=O)OCCC(CC)CC` [Example 7, Bis(3-ethylpentyl) 2,2′-(((((1-(6-amino-9H-purin-9-yl)propan-2-yl)oxy)methyl)phosphoryl)bis(azanediyl))(R)-bis(2-methylpropanoate)] displayed an EC50 of 0.009 µM. Against the preceding molecule, the EC50 is about 10-fold lower.

Molecule `CCCCCCOC(=O)C1(NP(=O)(CO[C@H](C)Cn2cnc3c(N)ncnc32)NC2(C(=O)OCCCCCC)CCC2)CCC1` [Example 19, Dihexyl 1,1′-(((((1-(6-amino-9H-purin-9-yl)propan-2-yl)oxy)methyl)phosphoryl)bis(azanediyl))(R)-bis(cyclobutane-1-carboxylate)] gave an EC50 of 0.03 µM.

Consider `CCC[C@H]1CC[C@H](COC(=O)C(C)(C)NP(=O)(CO[C@H](C)Cn2cnc3c(N)ncnc32)NC(C)(C)C(=O)OC[C@H]2CC[C@H](CCC)CC2)CC1` [Example 92], for which the EC50 was determined as 0.023 µM. This EC50 and that of the molecule before are within 1.5-fold of each other.

Regarding `CCC(CC)COC(=O)C(C)(C)NP(=O)(CO[C@H](C)Cn1cnc2c(N)ncnc21)NC(C)(C)C(=O)OCC(CC)CC` [Example 2, Bis(2-ethylbutyl) 2,2′-(((((1-(6-amino-9H-purin-9-yl)propan-2-yl)oxy)methyl)phosphoryl)bis(azanediyl))(R)-bis(2-methylpropanoate)], it took 0.004 µM to reach a half-maximal effect (EC50).

Regarding `C[C@H](Cn1cnc2c(N)ncnc21)OCP(=O)(NC(C)(C)C(=O)O[C@H]1C[C@@H](C(C)(C)C)C1)NC(C)(C)C(=O)O[C@H]1C[C@@H](C(C)(C)C)C1` [Example 51, Bis((1S,3S)-3-(tert-butyl)cyclobutyl) 2,2′-((((((R)-1-(6-amino-9H-purin-9-yl)propan-2-yl)oxy)methyl)phosphoryl)bis(azanediyl))bis(2-methylpropanoate)], the EC50 turned out to be 0.008 µM.

Molecule `CCCCCCOC(=O)C(C)(C)NP(=O)(CO[C@H](C)Cn1cnc2c(N)ncnc21)NC(C)(C)C(=O)OC(C)C1CC1` (stereo partly drawn) [Example 81, 1-Cyclopropylethyl 2-((((((R)-1-(6-amino-9H-purin-9-yl)propan-2-yl)oxy)methyl)((1-(hexyloxy)-2-methyl-1-oxopropan-2-yl)amino)phosphoryl)amino)-2-methylpropanoate] yielded a concentration for a half-maximal effect (EC50) greater than 0.5 µM.

In turn, `C[C@H](Cn1cnc2c(N)ncnc21)OCP(=O)(NC(C)(C)C(=O)OCC12CC3CC(CC(C3)C1)C2)NC(C)(C)C(=O)OCC12CC3CC(CC(C3)C1)C2` [Example 59, Bis(((1S,3S)-adamantan-1-yl)methyl) 2,2′-((((((R)-1-(6-amino-9H-purin-9-yl)propan-2-yl)oxy)methyl)phosphoryl)bis(azanediyl))bis(2-methylpropanoate)] registered an EC50 of 0.047 µM.

Regarding `CCCCCCOC(=O)C(C)(C)NP(=O)(CO[C@H](C)Cn1cnc2c(NC(=O)OCC(C)(C)C(=O)OCc3oc(=O)oc3C)ncnc21)NC(C)(C)C(=O)OCCCCCC` [Example 98, Dihexyl 2,2′-(((((1-(6-(((2,2-dimethyl-3-((5-methyl-2-oxo-1,3-dioxol-4-yl)methoxy)-3-oxopropoxy)carbonyl)amino)-9H-purin-9-yl)propan-2-yl)oxy)methyl)phosphoryl)bis(azanediyl))(R)-bis(2-methylpropanoate)], the EC50 was 0.213 µM.

Molecule `C[C@H](Cn1cnc2c(N)ncnc21)OCP(=O)(NC(C)(C)C(=O)OCC1CCCCCC1)NC(C)(C)C(=O)OCC1CCCCCC1` [Example 89, Bis(cycloheptylmethyl) 2,2′-(((((1-(6-amino-9H-purin-9-yl)propan-2-yl)oxy)methyl)phosphoryl)bis(azanediyl))(R)-bis(2-methylpropanoate)] yielded an EC50 of 0.006 µM.

`CCCCCCOC(=O)C(CC)(CC)NP(=O)(CO[C@H](C)Cn1cnc2c(N)ncnc21)NC(CC)(CC)C(=O)OCCCCCC` [Example 65, Dihexyl 2,2′-(((((1-(6-amino-9H-purin-9-yl)propan-2-yl)oxy)methyl)phosphoryl)bis(azanediyl))(R)-bis(2-ethylbutanoate)] returned an EC50 greater than 0.5 µM.

For `C[C@H](Cn1cnc2c(N)ncnc21)OCP(=O)(NC(C)(C)C(=O)O[C@H]1C[C@H](C(C)(C)C)C1)NC(C)(C)C(=O)O[C@H]1C[C@H](C(C)(C)C)C1` [Example 52, Bis((1R,3R)-3-(tert-butyl)cyclobutyl) 2,2′-((((((R)-1-(6-amino-9H-purin-9-yl)propan-2-yl)oxy)methyl)phosphoryl)bis(azanediyl))bis(2-methylpropanoate)], the midpoint of the response, the EC50, lay at 0.008 µM.

In turn, `CCCCCCOC(=O)C(C)(C)NP(=O)(CO[C@H](C)Cn1cnc2c(NC(=O)CCC)ncnc21)NC(C)(C)C(=O)OCCCCCC` [Example 29, Dihexyl 2,2′-(((((1-(6-butyramido-9H-purin-9-yl)propan-2-yl)oxy)methyl)phosphoryl)bis(azanediyl))(R)-bis(2-methylpropanoate)] displayed an EC50 of 0.016 µM. Against the preceding molecule, the EC50 is about 2-fold higher.

For the molecule `C[C@H](Cn1cnc2c(N)ncnc21)OCP(=O)(NC(C)(C)C(=O)OC1CC2(CCCCC2)C1)NC(C)(C)C(=O)OC1CC2(CCCCC2)C1` (stereo partly drawn) [Example 86, Di(spiro[3.5]nonan-2-yl) 2,2′-(((((1-(6-amino-9H-purin-9-yl)propan-2-yl)oxy)methyl)phosphoryl)bis(azanediyl))(R)-bis(2-methylpropanoate)], a half-maximal response (EC50) required 0.005 µM. Compared with the last molecule, the EC50 is about 3.2-fold lower.

Broadly, the EC50 is the concentration giving half of the maximal effect. Low readings indicate greater potency, high ones weaker potency.
